Test results: PubChem BioAssay AID844 (SRMLSC, 2007)
The source made the active and inactive calls. The rule behind the calls is not given here.

Test system: MRP1 cells, doxorubicin viability shift, 10 uM compound
Assay: doxorubicin EC50 increase in MRP-1 cells, dose response, cell-based, doxorubicin EC50 shift (AID 844)
Conditions: for EC50: measured here: doxorubicin EC50 with compound

## CC1CCc2nn(CC(=O)N3CCN(C(=O)c4ccco4)CC3)cc2C1 (centres undefined)
  fold increase in Dox EC50: 0.66 (inactive)
  EC50: 3.57 µM

## Nc1ccc(C(=O)OCC(=O)N2c3ccccc3Sc3ccccc32)cc1[N+](=O)[O-]
  fold increase in Dox EC50: 1.29 (inactive)
  EC50: 6.97 µM

## COc1ccc(N2C(S)=C(C#N)C(=O)NC2c2ccco2)cc1 (centres undefined)
  fold increase in Dox EC50: 0.41 (inactive)
  EC50: 2.2 µM

## Cc1cc2nc(/N=C(\N)NC(=O)N3c4ccccc4Sc4ccccc43)nc(C)c2cc1C
  fold increase in Dox EC50: 1.69
  EC50: 9.15 µM

## Cc1ccc(N2C(=O)C3C(c4ccccc4)(C2=O)C3(c2ccccc2)c2ccccc2)cc1 (centres undefined)
  fold increase in Dox EC50: 0.22 (inactive)
  EC50: 1.16 µM

## O=C1CSC2=NCN(c3ccccc3)CN12
  fold increase in Dox EC50: 0.55 (inactive)
  EC50: 2.95 µM

## Cn1nccc1CNC(=O)c1ccnn1C
  fold increase in Dox EC50: 0.66 (inactive)
  EC50: 3.56 µM

## O=C1CC(N2CCCN(C3CC(=O)N(c4ccc(F)cc4)C3=O)CC2)C(=O)N1c1ccc(F)cc1 (centres undefined)
  fold increase in Dox EC50: 1.17 (inactive)
  EC50: 6.34 µM

## O=C(c1ccc(COc2ccc(Cl)cc2)o1)N1N=C(C(F)F)CC1(O)C(F)F (centres undefined)
  fold increase in Dox EC50: 1.44 (inactive)
  EC50: 7.77 µM

## COc1ccc(OC)c(NC(=O)CSc2nnc(CNC(=O)COc3ccc(Cl)cc3)o2)c1
  fold increase in Dox EC50: 1.11 (inactive)
  EC50: 5.98 µM

## CCN(Cc1ccccc1)C(=O)CSc1nc(C)cc(C)c1C#N
  fold increase in Dox EC50: 0.59 (inactive)
  EC50: 3.19 µM

## Cc1ccc(S(=O)(=O)N/N=C\c2cn(-c3ccccc3)nc2-c2ccccc2)cc1
  fold increase in Dox EC50: 1.38 (inactive)
  EC50: 7.44 µM

## COc1ccccc1NC(=O)CSC(N)=O
  fold increase in Dox EC50: 0.81 (inactive)
  EC50: 4.4 µM

## N=C(N)SCc1ccccc1Cl
  fold increase in Dox EC50: 0.42 (inactive)
  EC50: 2.25 µM

## Cc1ccc(Nc2nc(CSc3nnnn3C)cs2)cc1
  fold increase in Dox EC50: 1.18 (inactive)
  EC50: 6.36 µM

## Cc1ccc2nc(/N=C(\N)NC(=O)N3c4ccccc4Sc4ccccc43)nc(C)c2c1
  fold increase in Dox EC50: 1.94
  EC50: 10.5 µM

## CC(NC(=O)C12CC3CC(CC(C3)C1)C2)c1ccc2c(c1)OCCO2 (centres undefined)
  fold increase in Dox EC50: 1.06 (inactive)
  EC50: 5.7 µM

## COc1ccc(N2C(=O)CC(N3CCC(O)(c4cccc(C(F)(F)F)c4)CC3)C2=O)cc1 (centres undefined)
  fold increase in Dox EC50: 0.89 (inactive)
  EC50: 4.82 µM

## COc1ccc(C(=O)NCCn2cc(SCC(=O)Nc3nnc(C)s3)c3ccccc32)cc1
  fold increase in Dox EC50: 0.5 (inactive)
  EC50: 2.72 µM

## COc1ncnc2c1oc1nc(CC(C)C)c3c(c12)CCCC3
  fold increase in Dox EC50: 0.66 (inactive)
  EC50: 3.57 µM

## c1ccc2c(-c3nc(C4CCCCC4)no3)cc(-c3ccncc3)nc2c1
  fold increase in Dox EC50: 0.62 (inactive)
  EC50: 3.32 µM

## O=C(NC(=S)NC(=O)c1ccccc1F)c1ccccc1F
  fold increase in Dox EC50: 1.44 (inactive)
  EC50: 7.79 µM

## O=C(NCCc1ccccc1)C(=O)c1c(-c2ccccc2)cc2ccccn12
  fold increase in Dox EC50: 1.08 (inactive)
  EC50: 5.84 µM

## CCOC(=O)c1sc2nc3n(c(=O)c2c1C)CCCCC3
  fold increase in Dox EC50: 0.52 (inactive)
  EC50: 2.81 µM

## CCN(CC)S(=O)(=O)c1cc(NC(=O)C(=O)c2c(-c3ccccc3)cc3ccccn23)ccc1C
  fold increase in Dox EC50: 1.28 (inactive)
  EC50: 6.91 µM

## O=C1N=C(c2ccccc2)S/C1=C\c1cccs1
  fold increase in Dox EC50: 1.2 (inactive)
  EC50: 6.5 µM

## CNC[C@H](O)c1ccc(O)c(O)c1
  fold increase in Dox EC50: 0.69 (inactive)
  EC50: 3.75 µM

## CCC1(C)Cc2c(sc3nnn(Cc4ccccc4Cl)c(=O)c23)CO1 (centres undefined)
  fold increase in Dox EC50: 0.81 (inactive)
  EC50: 4.35 µM

## Cc1oc(C(=O)Nc2ccc(C(=O)O)cc2)cc1COc1ccccc1
  fold increase in Dox EC50: 0.42 (inactive)
  EC50: 2.24 µM

## O=C(O)c1ccc(N/N=C/c2ccc(F)c(F)c2)cc1
  fold increase in Dox EC50: 1.31 (inactive)
  EC50: 7.07 µM

## CCc1nnc(NC(=O)C(C)N2C(=O)C3C4C=CC(C4)C3C2=O)s1 (centres undefined)
  fold increase in Dox EC50: 1.01 (inactive)
  EC50: 5.44 µM

## CCn1c(SCc2ccc(Cl)cc2)nc2nc3c(cc2c1=O)CCCC3
  fold increase in Dox EC50: 0.77 (inactive)
  EC50: 4.17 µM

## Cc1ccc(NC(=O)CCC(=O)N/N=C/c2cccs2)cc1C
  fold increase in Dox EC50: 0.97 (inactive)
  EC50: 5.23 µM

## COc1ccc(NC2=Nc3ccccc3N3C2=Nc2c(c(C)nn2-c2ccc(C)cc2)C3c2cccnc2)cc1 (centres undefined)
  fold increase in Dox EC50: 0.6 (inactive)
  EC50: 3.24 µM

## S=C(c1ccc(-c2ccccc2Cl)o1)N1CCCCC1
  fold increase in Dox EC50: 0.85 (inactive)
  EC50: 4.59 µM

## O=[N+]([O-])c1ccc(O)c(/C=N/n2cnc3ccccc32)c1
  fold increase in Dox EC50: 0.67 (inactive)
  EC50: 3.61 µM

## CCOc1ccccc1C(=O)OCC(=O)Nc1ccc(OC(F)F)cc1
  fold increase in Dox EC50: 0.93 (inactive)
  EC50: 5.04 µM

## O=C(N/N=C/c1ccccn1)c1cc(-c2ccc3ccccc3c2)n[nH]1
  fold increase in Dox EC50: 0.75 (inactive)
  EC50: 4.04 µM

## O=C(Nc1cccn(Cc2c(Cl)cccc2Cl)c1=O)c1c(Cl)cccc1Cl
  fold increase in Dox EC50: 1.07 (inactive)
  EC50: 5.79 µM

## CC(C)Oc1ccc(-c2nn(-c3ccccc3)cc2/C=c2\sc3ncnn3c2=O)cc1
  fold increase in Dox EC50: 0.82 (inactive)
  EC50: 4.4 µM

## COC(=O)CC1SC(=O)NC1=O (centres undefined)
  fold increase in Dox EC50: 0.9 (inactive)
  EC50: 4.84 µM

## COCC(=O)Nc1nnc(COc2ccc(Cl)cc2)s1
  fold increase in Dox EC50: 1.44 (inactive)
  EC50: 7.75 µM

## O=C(CC(NC(=O)C(F)(F)F)c1ccccc1)Nc1nnc(CCc2ccccc2)s1 (centres undefined)
  fold increase in Dox EC50: 1.85
  EC50: 9.97 µM

## O=C(CCc1ccccc1)Nc1nnc(-c2ccc3c(c2)CCCC3)o1
  fold increase in Dox EC50: 0.25 (inactive)
  EC50: 1.36 µM

## Cc1cccc(-n2c(N)cc(=O)nc2SCC(=O)Nc2nnc(C)s2)c1
  fold increase in Dox EC50: 1.54
  EC50: 8.29 µM

## CCc1ccc(/C(C)=N/Nc2cc(Cl)nc(C)n2)cc1
  fold increase in Dox EC50: 0.69 (inactive)
  EC50: 3.75 µM

## CC(/C=C1\SC(=S)N(CCCC(=O)Nc2ccc(C(=O)O)cc2)C1=O)=C\c1ccccc1
  fold increase in Dox EC50: 0.55 (inactive)
  EC50: 2.98 µM

## COc1cccc(/C=N/NC(=O)Cn2nc(C)c([N+](=O)[O-])c2C)c1O
  fold increase in Dox EC50: 0.12 (inactive)
  EC50: 0.673 µM

## CCC(=O)N1CCN=C1SCc1ccc(F)cc1
  fold increase in Dox EC50: 0.75 (inactive)
  EC50: 4.07 µM

## COc1cc(SC)ccc1C(=O)NCCOc1ccc(Cl)cc1
  fold increase in Dox EC50: 1.36 (inactive)
  EC50: 7.36 µM

## CCc1nnc(NC(=O)C2COc3ccccc3O2)s1 (centres undefined)
  fold increase in Dox EC50: 1.1 (inactive)
  EC50: 5.95 µM

## O=C(Cc1ccccc1)Nc1ccccc1Oc1ccccc1
  fold increase in Dox EC50: 0.69 (inactive)
  EC50: 3.71 µM

## COc1ccc(OCc2nnc(SCC(=O)N3c4ccccc4Sc4ccc(Cl)cc43)o2)cc1
  fold increase in Dox EC50: 1.1 (inactive)
  EC50: 5.92 µM

## Cn1nc(C(F)(F)F)c2cc(NC(=O)OCc3ccc(C(C)(C)C)cc3)sc21
  fold increase in Dox EC50: 0.74 (inactive)
  EC50: 4.02 µM

## CCOC(=O)CSc1nc(N)nc(C)c1Br
  fold increase in Dox EC50: 0.78 (inactive)
  EC50: 4.2 µM

## CC1CCC/C(=C(\C#N)c2nc(-c3cc4ccccc4oc3=O)cs2)C1 (centres undefined)
  fold increase in Dox EC50: 0.55 (inactive)
  EC50: 2.96 µM

## O=C(Nc1nnc(COc2ccc(Cl)cc2)s1)C1CCCO1 (centres undefined)
  fold increase in Dox EC50: 1.2 (inactive)
  EC50: 6.46 µM

## Cc1ccc(OCCN2CCN(C(=O)CCC(=O)Nc3nnc(C)s3)CC2)cc1
  fold increase in Dox EC50: 1.53
  EC50: 8.28 µM

## Cc1noc(/C=C/N(C)C)c1S(=O)(=O)N1CCCC(C(=O)NCc2ccco2)C1 (centres undefined)
  fold increase in Dox EC50: 1.04 (inactive)
  EC50: 5.6 µM

## CCOC(=O)c1ccc(N2C(=O)c3n[nH]c(C)c3C2c2ccc(OC)cc2OC)cc1 (centres undefined)
  fold increase in Dox EC50: 0.28 (inactive)
  EC50: 1.51 µM

## COc1cc(C(c2sc3ncnn3c2O)N2CCN(c3ccccc3F)CC2)cc(OC)c1OC (centres undefined)
  fold increase in Dox EC50: 0.81 (inactive)
  EC50: 4.37 µM

## CCC(Sc1nc(-c2ccccc2)c(C#N)c(=O)[nH]1)C(=O)Nc1nnc(C)s1 (centres undefined)
  fold increase in Dox EC50: 1.82
  EC50: 9.85 µM

## N#Cc1nc(COc2ccc(Br)cc2)oc1N1CCCCCC1
  fold increase in Dox EC50: 0.78 (inactive)
  EC50: 4.21 µM

## O=C(/C=C/c1ccc([N+](=O)[O-])cc1)N1CCN(c2ccccc2F)CC1
  fold increase in Dox EC50: 0.56 (inactive)
  EC50: 3.05 µM

## CCSC(C)CC1C/C(=N/O)c2c(CC)noc2C1 (centres undefined)
  fold increase in Dox EC50: 1.27 (inactive)
  EC50: 6.85 µM

## Oc1c(C(c2cccs2)N2CCN(c3ccc(F)cc3)CC2)sc2ncnn12 (centres undefined)
  fold increase in Dox EC50: 1.32 (inactive)
  EC50: 7.1 µM

## Cc1ccc(N2C(=O)Nc3ccc(Br)cc3C2(O)C(=O)NCCCN(C)C)cc1C (centres undefined)
  fold increase in Dox EC50: 0.69 (inactive)
  EC50: 3.72 µM

## O=C(CSCc1ccc(Cl)cc1)N1CCN(Cc2ccc3c(c2)OCO3)CC1
  fold increase in Dox EC50: 0.77 (inactive)
  EC50: 4.18 µM

## Cc1ccc(NC(=O)CSc2nnc(C)n2-c2ccccc2)cc1
  fold increase in Dox EC50: 1.61
  EC50: 8.71 µM

## C=CCNC(=S)NNC(=O)COc1ccc(Br)cc1
  fold increase in Dox EC50: 0.71 (inactive)
  EC50: 3.82 µM

## O=C(O)/C=C\C(=O)NC1CCCCC1
  fold increase in Dox EC50: 0.68 (inactive)
  EC50: 3.67 µM

## O=C(CC1SC(=O)N(c2ccccc2)C1=O)Nc1ccccc1 (centres undefined)
  fold increase in Dox EC50: 1.19 (inactive)
  EC50: 6.42 µM

## O=C(c1cnn2c(C(F)(F)F)cc(-c3cccs3)nc12)N1CCN(C(c2ccccc2)c2ccccc2)CC1
  fold increase in Dox EC50: 0.17 (inactive)
  EC50: 0.916 µM

## Cc1cccc(OCCNC(=O)c2ccc(Oc3ccc(C(F)(F)F)cc3[N+](=O)[O-])cc2)c1
  fold increase in Dox EC50: 1.12 (inactive)
  EC50: 6.05 µM

## CSC1=NP(=S)(SC)N2CCCC2=C1C#N (centres undefined)
  fold increase in Dox EC50: 0.97 (inactive)
  EC50: 5.24 µM

## CC(=O)N1CCN=C1SCc1ccc(C)cc1
  fold increase in Dox EC50: 0.87 (inactive)
  EC50: 4.67 µM

## c1ccc(-c2ccc(-c3nc(-c4ccncc4)no3)cc2)cc1
  fold increase in Dox EC50: 0.41 (inactive)
  EC50: 2.21 µM
